Test results reported in US12642809B2, “Fucosylation and immune modulation in cancer” (H. LEE MOFFITT CANCER CENTER AND RESEARCH INSTITUTE, INC., priority 2019, dated 2026).
Entries after “also recorded” stand apart in the source; their conditions may differ.

Tests used:
[1] = test system: MDSCs; test: IFNγ of T cells co-cultured with pre-treated MDSCs; type: cell-based, BalbC mice; conditions: CD3/CD28 bead activation
Description: Shown are IFNγ production/secretion levels of combined bulk CD4^+ and CD8^+ T cells from BalbC mice treated with either DMSO (black column) or L-fucose (red column) or co-cultured with MDSCs pre-treated with DMSO (aquamarine column) or with L-fucose (purple column). The T cells were activated using CD3/CD28 beads.

[2] = test system: HLA-DRB1; test: Flow cytometry of cell surface HLA-DRB1 in melanoma cells; type: cell-based, human; conditions: 250 μM, 72 h, panel of melanoma cell lines
Procedure: Indicated cells were treated for 72 h with DMSO, 250 μM fucosyltransferase inhibitor (FUTi) (Millipore Sigma (St. Louis, MO)), or 250 μM of L-fucose (Biosynth (Oak Terrace, IL)). After 72 h, cells were stained with 0.1 μM PKH26 (Millipore Sigma (St. Louis, MO)) prior to fixation in 4% formaldehyde solution. The cells were stained with anti-HLA-DRB1 (rabbit anti-human HLA-DRB1 (0.2 μg/mL, ab92371, Abcam (Cambridge, UK)) and fluorescein AAL (0.2 μg/ml. Vector Labs (Burlingame, CA)), or anti-human or anti-mouse PD-L1 (Novus Biologicals (Centennial, CO) or Biolegend (San Diego, CA), respectively) overnight. The following day the cells were washed 3 times prior to adding AlexaFluor 594 donkey anti-rabbit (0.8 μg/mL, ThermoFisher Scientific (Waltham, MA)). Cells were washed 3 times and then subject to flow cytometric analyses using a FACSCalibur™ (BD Biosciences (San Jose, CA)). Samples were analyzed using FlowJo™ analysis software (BD Biosciences (San Jose, CA)). Median values of DRB1 and AAL were normalized to PKH26 values and statistical analysis was performed using GraphPad Prism™.

[3] = test system: SW1 tumors; test: Anti-PD1 ± L-fucose, SW1 (NRAS-mutant) model in C3H mice; type: in vivo, mouse
Description: Fucosylation of HLA-DRB1 occurs on amino acid N48 (mutation to G abolishes interaction with fucose-binding AAL, lectin) (FIG. 9A). […] To further investigate the efficacy of the combination therapy of L-fucose and anti-PD1 and to see if the combination of L-fucose and anti-PD1 improved the efficacy of either agent alone, two mouse melanoma mouse models were used. The first was the NRAS-mutant melanoma mouse model. Here, C3H mice were pretreated with anti-PD1 and/or L-fucose or a L-fucose pre-dose followed by anti-PD1 antibody (FIG. 11). […] Using a BRAF-mutant melanoma model, the efficacy of the combination therapy was more pronounced. Here C57BL6 mice were challenged with SMI cells (FIG. 11). 7 days post challenge, mice received either a control, anti-PD1, L-fucose, or L-fucose and anti-PD1.
SW1 or SM1 mouse melanoma cells were injected into syngeneic C3H/HeN female or C57BL/6 male mice, respectively. After approximately 7 days, when the mice tumors reached ˜150 mm^3, the mice were either supplemented with or without 100 mM L-fucose (Biosynth (Oak Terrace, IL)) via drinking water, which was provided ad libitum. Simultaneously, the mice were injected either with PBS (control) or anti-PD1 (20 mg/kg, clone RMP1-14, Bioxcell (West Lebanon, NH)) every 3-4 days until endpoint. When the tumors reached ˜2 cm^3, the animals were sacrificed.

[4] = test system: MDSCs; test: T cell proliferation in co-culture with pre-treated MDSCs; type: cell-based; conditions: CD3/CD28 activation, CellTrace Violet
Procedure: Shown progressive divisions of CD3/CD28-activated T cells (both CD4+ and CD8+ combined) as affected by co-culture with DMSO (control)-, FUTi (fucosyltransferase inhibitor)-, or L-fucose-pre-treated MDSCs. Undivided T cells are represented by the dark grey column. Divisions were measured by loss of CellTrace™ Violet stain. First division is represented by the light green column; second division is represented by the yellow column; and third division is represented by the navy blue column.

[5] = test system: SW1 tumors; test: CD4+/CD8+ T cell immunodepletion, SW1 model; type: in vivo, mouse
Procedure: Single-cell suspensions from tumor and spleen tissue were stained with Live/Dead Zombie NIR (Biolegend, (San Diego, CA)) at 1:1,000 in PBS for 20 min. Cell suspensions were spun down and stained with the following antibodies: APC anti-mouse CD3 (0.5 μg/mL, BD Biosciences (San Jose, CA)), Pacific Blue anti-mouse CD4 ([…], BD Biosciences (San Jose, CA)), BV785 anti-mouse CD8 (0.5 μg/mL, BD Biosciences (San Jose, CA)), PerCP anti-mouse CD25 ([…], BD Biosciences (San Jose, CA)), FITC anti-mouse F4/80 (0.5 μg/mL, BD Biosciences (San Jose, CA)), PeCy7 anti-mouse CD11c (0.5 μg/mL, BD Biosciences (San Jose, CA)), PE anti-mouse NK1.1 (0.5 μg/mL, BD Biosciences (San Jose, CA)), PE anti-mouse DX5 (0.5 μg/mL, BD Biosciences (San Jose, CA)), PerCP-Cy5.5 anti-mouse CD11b (0.5 μg/mL, BD Biosciences (San Jose, CA)). After staining, the cells were washed and fixed (2% formaldehyde), followed by another wash and flow cytometric analysis. The compensation controls were prepared using 0.5 μg/ml. of each antibody with beads UltraComp eBeads™, (ThermoFisher Scientific (Waltham, MA)). All samples were subject to flow cytometric analysis using a LSR Flow Cytometer (BD Biosciences (San Jose, CA)). Flow cytometric data was further analyzed using FlowJo™ analysis software (BD Biosciences (San Jose, CA)). TIL profiles were determined as a measure of TIL subpopulations per gram of tumor tissues or % of total splenocytes.
Three days prior to tumor engraftment, PBS (control) or ˜300 μg α-CD4 (20 mg/kg, for immunodepletion, GK1.5, Bioxcell (West Lebanon, NH)) or α-CD8 (20 mg/kg, for immunodepletion, 2.43, Bioxcell (West Lebanon, NH)) was administered by intraperitoneal injection into the indicated cohorts of mice. Injections of immunodepletion antibody or PBS were continued every 3-4 days until endpoint. Syngeneic recipient C3H/HeN female or C57BL/6 male mice were injected with SW1 or SMI cells, respectively. After approximately 7 days, when the tumors reached ˜150 mm^3, the mice were either supplemented with or without 100 mM L-fucose (Biosynth (Oak Terrace, IL)) via drinking water, which was provided ad libitum. When the tumors reached ˜2 cm^3, the animals were sacrificed, and the tumors were either processed for flow cytometric profiling or for histological analysis as indicated.

C[C@H](O)[C@@H](O)[C@@H](O)[C@H](O)C=O [L-fucose] was tested, and the “MDSC-mediated suppression of T cell IFNγ production/secretion” value [1] was “completely reverts MDSC-mediated T cell suppression”, the “cell surface HLA-DRB1 relative to DMSO” value [2] was “promotes cell surface abundance; also recorded: increased” and the “cell surface HLA-DRB1 relative to DMSO” value ([2]; listed as L-fuc) was “increased”. For the same compound, the suppressed tumor growth ([3]; 100 mM L-fuc alone) was 50-60%, the control of tumor ([3]; NRAS-mutant model, FIG. 11, single agents) was “effectively control the tumor” and the “tumor suppression compared with anti-PD1” value ([3]; single agents) was “as much as anti-PD1; also recorded: as well as anti-PD1”. The “effect of pre-treated MDSCs on T cell proliferation” value [4] was “do not”, the “L-fuc-induced tumor suppression and increase in total TILs” value ([5]; CD4+ T cell-depleted mice) was “abrogated tumor suppression” and the “increases in intratumoral NK, DC and CD8+ T cells” value ([5]; CD4+ T cell-depleted mice) was “completely blunted”. For the same compound, the “L-fuc-induced tumor suppression and increase in total TILs” value ([5]; CD4+ T cell-depleted mice, listed as L-fuc) was “completely abrogated”, the reduced tumor growth ([5]; CD8+ T cell-depleted mice) was about 50% and the reduced tumor growth ([5]; control (PBS-injected) mice) was about 60%. For the same compound, the “increase in intratumoral CD8+ T cells” value ([5]; control mice) was about 10 fold, the “increase in intratumoral DC” value ([5]; control mice) was about 10 fold and the “increase in intratumoral NK cells” value ([5]; control mice) was about 3 fold.
